{
  "source": "patent US20260284051A1",
  "about": "“METHIONINE ADENOSYLTRANSFERASE 2A (MAT2A) INHIBITOR COMBINATIONS AND USES THEREOF” (INSILICO MEDICINE IP LIMITED, priority 2023, published 2026)",
  "data": [
    {"system": "NCI-H838 MTAP null xenografts", "test": "Efficacy study of NCI-H838 human lung cancer xenograft model in NOD SCID mice", "format": "in vivo", "details": "MRTX1719 50 mg/kg QD", "description": "(§1) Efficacy Study of NCI-H838 Human Lung Cancer Xenograft Model in NOD SCID Mice Methods:\n(§2) The NCI-H838 cancer cells were maintained in vitro with RPMI-1640 medium supplemented with 10% fetal bovine serum at 37TC in an atmosphere of 5% CO2 in the air. The cells in exponential growth phase were harvested and quantitated by cell counter before tumor inoculation.\n(§3) NOD SCID mice, female, 6-8 weeks, weighing approximately 20-22 g, All the mice were purchased from Shanghai Lingchang Bio-Tech Co., Ltd.\n(§4) Each mouse was inoculated subcutaneously at the right flank with NCI-H838 cells in a 0.1 mL of PBS mixed with Matrigel (1:1) for tumor development (5×10^6 cells/mouse). Dosing was started when the average tumor size reached approximately ~150 mm^3 for the tumor efficacy study with tool and med chem molecules to look for efficacy vs vehicle tumor growth.\n(§5) Mean tumor volume at dosing start was approximately 146.51 mm^3, with six mice randomized to each treatment group. In the NCI-H838 MTAP null tumor model, mice were dosed orally, once per day (QD) with vehicle, once per day (QD) with Compound 1 at 3, 10 mg/kg, mice were intravenous, once per day (QD) with PRMT5 inhibitor MRTX1719 at 50 mg/kg, or Compound 1 combined with MRTX1719 at each dose level.", "units": {"TGI (%)": "%"}, "values": [
      {"smiles": "Cn1ncc(-c2ccc3c(=O)[nH]nc(CN)c3c2)c1-c1c(F)c(Cl)cc(OC2CC2)c1C#N", "note": "[MRTX1719, reference compound]", "TGI (%)": 81.5}
    ]},
    {"system": "NCI-H838 MTAP null xenografts", "test": "Efficacy study of NCI-H838 human lung cancer xenograft model in NOD SCID mice", "format": "in vivo", "details": "MRTX1719 50 mg/kg QD; Mean ± SD", "description": "as §1, §2, §3, §4, §5", "units": {"Tumor volume (mm^3) Final (mean)": "mm^3"}, "values": [
      {"smiles": "Cn1ncc(-c2ccc3c(=O)[nH]nc(CN)c3c2)c1-c1c(F)c(Cl)cc(OC2CC2)c1C#N", "note": "[MRTX1719, reference compound]", "Tumor volume (mm^3) Final (mean)": "501 ± 69"}
    ]},
    {"target": "MAT2A (Homo sapiens, UniProt P31153)", "sequence (P31153 whole entry, species assumed)": "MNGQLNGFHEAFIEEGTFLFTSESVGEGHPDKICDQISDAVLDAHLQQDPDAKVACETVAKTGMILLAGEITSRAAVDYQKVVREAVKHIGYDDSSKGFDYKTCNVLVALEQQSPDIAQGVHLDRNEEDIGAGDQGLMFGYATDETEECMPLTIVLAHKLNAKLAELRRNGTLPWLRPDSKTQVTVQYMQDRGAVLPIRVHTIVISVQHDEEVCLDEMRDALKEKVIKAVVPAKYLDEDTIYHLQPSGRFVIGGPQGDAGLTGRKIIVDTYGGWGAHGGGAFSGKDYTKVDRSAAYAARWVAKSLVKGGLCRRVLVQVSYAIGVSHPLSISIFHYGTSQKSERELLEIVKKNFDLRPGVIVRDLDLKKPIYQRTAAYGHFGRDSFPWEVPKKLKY", "test": "MAT2A Biochemical Assay", "details": "read-out: MAT2A enzymatic IC50", "description": "Example A: MAT2A Biochemical Assay\nCompounds described herein were tested as follows:\n• (1). Prepared 1×Assay buffer. • (2). Preparation of compound concentration gradient: the compounds test condition were […], 3-fold dilution, 10 doses, singlet or duplicate. 100x concentration compounds were prepared in 384-well plate. Then used Echo 550 to transfer 250 nl to a 384-reaction plate for later use. Added 250 nl of 100% DMSO to the negative and positive control wells. • (3). Prepared 1.67× final concentration enzyme solution with 1×Assay buffer. • (4). Added 15 μl of 1.67× Enzyme solution to the compound wells and positive control wells; added 15 μl of 1×Assay buffer to the negative control wells. • (5). Centrifuged at 1000 rpm for 30 seconds and incubate for 15 minutes. • (6). Prepared 2.5× final concentration Substrate mix solution with 1×Assay buffer. • (7). Added 10 μl of 2.5× final concentration Substrate mix solution to start the reaction. • (8). Centrifuged at 1000 rpm for 30 seconds and incubate for 150 minutes. • (9). Added […] Biomol Green to stop the reaction, centrifuge at 1000 rpm for 30 seconds and incubate for 15 minutes. read O.D.620, process data.\n• (1) Using GraphPad Prism 5.\n[formula] • (3) Max signal was obtained from the positive control wells. • (4) Min signal was obtained from the negative control wells.", "units": {"IC50": "nM"}, "values": [
      {"smiles": "C#CCCNc1nc(=O)n(-c2ccccc2Cl)c2cc(Cl)ccc12", "note": "[Example 8]", "IC50": "< 50"},
      {"smiles": "C#CC1(Nc2nc(=O)n(-c3cccnc3)c3cc(C(F)(F)F)ccc23)CC1", "note": "[Example 67]", "IC50": "< 50"},
      {"smiles": "C#CCNc1nc(=O)n(-c2cccnn2)c2nc(C(F)(F)F)ccc12", "note": "[Example 63]", "IC50": "< 50"},
      {"smiles": "C#CC(C)Nc1nc(=O)n(-c2cccnc2C)c2cc(Cl)cc(OC)c12", "note": "(stereo not drawn) [Example 26]", "IC50": "< 50"},
      {"smiles": "C#CC1(Nc2nc(=O)n(-c3cccnc3C)c3cc(C(F)(F)F)cc(OC)c23)CC1", "note": "[Example 49]", "IC50": "< 50"},
      {"smiles": "C#CC(C)Nc1nc(=O)n(-c2cccnc2)c2cc(C(F)(F)F)ccc12", "note": "(stereo not drawn) [Example 64]", "IC50": "< 50"},
      {"smiles": "C#CCNc1nc(=O)n(-c2cccnc2C)c2cc(Cl)ccc12", "note": "[Example 15]", "IC50": "< 50"},
      {"smiles": "C#CC1(Nc2nc(=O)n(-c3cccnc3C)c3cc(C(F)(F)F)ccc23)CC1", "note": "[Example 46]", "IC50": "< 50"},
      {"smiles": "C#CC1(Nc2nc(=O)n(-c3cccnc3)c3nc(C(F)(F)F)ccc23)CC1", "note": "[Example 68]", "IC50": "< 50"},
      {"smiles": "C#CC1CCN(c2nc(=O)n(-c3ccccc3Cl)c3cc(Cl)ccc23)CC1", "note": "[Example 13]", "IC50": "> 1000"},
      {"smiles": "C#CCNc1nc(=O)n(-c2ccccc2Cl)c2cc(Cl)ccc12", "note": "[Example 10]", "IC50": "< 50"},
      {"smiles": "C=CCNc1nc(=O)n(-c2cccnc2C)c2cc(Cl)cc(OC)c12", "note": "[Example 74]", "IC50": "< 50"},
      {"smiles": "C#CCNc1nc(=O)n(-c2cccnc2)c2cc(C(F)(F)F)ccc12", "note": "[Example 7]", "IC50": "< 50"},
      {"smiles": "C#CC1(Nc2nc(=O)n(-c3cnccn3)c3cc(Cl)cc(OC)c23)CC1", "note": "[Example 24]", "IC50": "< 50"},
      {"smiles": "C#CCNc1nc(=O)n(-c2cccnc2)c2cc(Cl)cc(F)c12", "note": "[Example 29]", "IC50": "< 50"},
      {"smiles": "C#CCNc1nc(=O)n(-c2cnccn2)c2cc(C(F)(F)F)ccc12", "note": "[Example 53]", "IC50": "< 50"},
      {"smiles": "C#CCNc1nc(=O)n(-c2cccnc2C)c2cc(C(F)(F)F)ccc12", "note": "[Example 33]", "IC50": "< 50"},
      {"smiles": "C#CC1(Nc2nc(=O)n(-c3cccnc3)c3cc(Cl)ccc23)CC1", "note": "[Example 4]", "IC50": "< 50"},
      {"smiles": "C#CC1(Nc2nc(=O)n(-c3cccnc3)c3cc(Cl)cc(OC)c23)CC1", "note": "[Example 66]", "IC50": "< 50"},
      {"smiles": "C#CCNc1nc(=O)n(-c2cccnc2)c2nc(C(F)(F)F)ccc12", "note": "[Example 57]", "IC50": "< 50"},
      {"smiles": "C#CCNc1nc(=O)n(-c2cccnc2)c2cc(C(F)(F)F)cc(OCF)c12", "note": "[Example 38]", "IC50": "< 50"},
      {"smiles": "C=CCNc1nc(=O)n(-c2cccnc2)c2cc(Cl)cc(OC)c12", "note": "[Example 73]", "IC50": "< 50"},
      {"smiles": "C#CC1(Nc2nc(=O)n(-c3cccnn3)c3nc(C(F)(F)F)ccc23)CC1", "note": "[Example 70]", "IC50": "< 50"},
      {"smiles": "C#CC1(Nc2nc(=O)n(-c3cccnc3)c3cc(C(F)(F)F)cc(OC)c23)CC1", "note": "[Example 47]", "IC50": "< 50"},
      {"smiles": "C#CC1(Nc2nc(=O)n(-c3cccnc3C)c3cc(Cl)cc(OC)c23)CCC1", "note": "[Example 28]", "IC50": "< 50"},
      {"smiles": "C=CC1(Nc2nc(=O)n(-c3cccnc3C)c3cc(Cl)cc(OC)c23)CC1", "note": "[Example 75]", "IC50": "< 50"},
      {"smiles": "C#CCN(C)c1nc(=O)n(-c2cccnc2)c2cc(C(F)(F)F)ccc12", "note": "[Example 51]", "IC50": "< 50"},
      {"smiles": "C#CCCCNc1nc(=O)n(-c2cccnc2)c2cc(C(F)(F)F)ccc12", "note": "[Example 6]", "IC50": "< 50"},
      {"smiles": "O=c1nc(NCC#CCN2CCOCC2)c2ccc(C(F)(F)F)cc2n1-c1cccnc1", "note": "[Example 14]", "IC50": "< 50"},
      {"smiles": "C#CC1(Nc2nc(=O)n(-c3nccnc3C)c3cc(Cl)cc(OC)c23)CC1", "note": "[Example 25]", "IC50": "< 50"},
      {"smiles": "C#CCNc1nc(=O)n(-c2cccnc2)c2cc(Cl)cc(OC)c12", "note": "[Example 20]", "IC50": "< 50"},
      {"smiles": "O=c1nc(NCC#CC2CC2)c2ccc(Cl)cc2n1-c1cccnc1", "note": "[Example 2]", "IC50": "< 50"},
      {"smiles": "C=CCNc1nc(=O)n(-c2cccnc2)c2cc(C(F)(F)F)ccc12", "note": "[Example 76]", "IC50": "< 50"},
      {"smiles": "C#CCNc1nc(=O)n(-c2cccnc2C)c2cc(Cl)cc(F)c12", "note": "[Example 30]", "IC50": "< 50"},
      {"smiles": "C#CCNc1nc(=O)n(-c2cccnc2)c2nc(C(F)(F)F)ncc12", "note": "[Example 61]", "IC50": "< 50"},
      {"smiles": "C#CC1(Nc2nc(=O)n(-c3cccnc3C)c3cc(Cl)cc(OC)c23)CC1", "note": "[Example 27]", "IC50": "< 50"},
      {"smiles": "C#CCNc1nc(=O)n(-c2cccnc2C)c2nc(C(F)(F)F)cc(OC)c12", "note": "[Example 42]", "IC50": "< 50"},
      {"smiles": "C#CCNc1nc(=O)n(-c2cnccn2)c2cc(Cl)cc(OC)c12", "note": "[Example 21]", "IC50": "< 50"},
      {"smiles": "C#CCNc1nc(=O)n(-c2c(C)ccnc2C)c2cc(C(F)(F)F)ccc12", "note": "[Example 52]", "IC50": "< 50"},
      {"smiles": "C#CCNc1nc(=O)n(-c2cccnc2C)c2cc(Br)cc(OC)c12", "note": "[Example 19]", "IC50": "< 50"},
      {"smiles": "C=CCNc1nc(=O)n(-c2cccnc2C)c2cc(C(F)(F)F)cc(OC)c12", "note": "[Example 77]", "IC50": "< 50"},
      {"smiles": "C#CC1(Nc2nc(=O)n(-c3cnccn3)c3cc(C(F)(F)F)ccc23)CC1", "note": "[Example 69]", "IC50": "< 50"},
      {"smiles": "C#CC1(Nc2nc(=O)n(-c3cccnc3C)c3cc(Cl)cc(F)c23)CC1", "note": "[Example 31]", "IC50": "< 50"},
      {"smiles": "C#CC1(Nc2nc(=O)n(-c3cccnc3C)c3cc(C(F)(F)F)cc(OC)c23)CCC1", "note": "[Example 50]", "IC50": "< 50"},
      {"smiles": "C#CC1(Nc2nc(=O)n(-c3cccnc3C)c3cc(Cl)ccc23)CC1", "note": "[Example 16]", "IC50": "< 50"},
      {"smiles": "C#CC(C)Nc1nc(=O)n(-c2cccnc2)c2cc(C(F)(F)F)cc(OC)c12", "note": "(stereo not drawn) [Example 35]", "IC50": "< 50"},
      {"smiles": "C#CCNc1nc(=O)n(-c2nccnc2C)c2cc(Cl)cc(OC)c12", "note": "[Example 23]", "IC50": "< 50"},
      {"smiles": "C#CCNc1nc(=O)n(-c2cccnc2)c2cc(C(F)(F)F)cc(OC)c12", "note": "[Example 34]", "IC50": "< 50"},
      {"smiles": "C#CC1(Nc2nc(=O)n(-c3cccnc3)c3cc(C(F)(F)F)cnc23)CC1", "note": "[Example 56]", "IC50": "> 1000"},
      {"smiles": "C#CCNc1nc(=O)n(-c2cccnc2C)c2cc(C(F)(F)F)cc(OC(F)F)c12", "note": "[Example 40]", "IC50": "< 50"},
      {"smiles": "C#CCNc1nc(=O)n(-c2cccnc2C(C)C)c2cc(C(F)(F)F)ccc12", "note": "[Example 45]", "IC50": "< 50"},
      {"smiles": "C#CCNc1nc(=O)n(-c2nccnc2C)c2cc(C(F)(F)F)cc(OC)c12", "note": "[Example 48]", "IC50": "< 50"},
      {"smiles": "C#CCNc1nc(=O)n(-c2cccnc2)c2cc(Cl)ccc12", "note": "[Example 1]", "IC50": "< 50"},
      {"smiles": "C#CCNc1nc(=O)n(-c2cccnc2)c2cc(Br)ccc12", "note": "[Example 18]", "IC50": "< 50"},
      {"smiles": "C#CCNc1nc(=O)n(-c2cccnc2C)c2cc(Cl)cc(OC)c12", "note": "[Example 22]", "IC50": "< 50"},
      {"smiles": "C#CCNc1nc(=O)n(-c2cnccn2)c2cc(Cl)ccc12", "note": "[Example 17]", "IC50": "< 50"},
      {"smiles": "C#CC(C)Nc1nc(=O)n(-c2cccnc2C)c2cc(C(F)(F)F)cc(OC)c12", "note": "(stereo not drawn) [Example 37]", "IC50": "< 50"},
      {"smiles": "C#CCNc1nc(=O)n(-c2cnccn2)c2cc(C(F)(F)F)cc(OC)c12", "note": "[Example 54]", "IC50": "< 50"}
    ]}
  ]
}
